Tested on: Plasmodium berghei
Test: Luciferase/luciferin-expressing antifolate-resistant parasites were used to infect a culture of HepG2 cells that were pre-incubated with compounds. Infected hepatocytes emit light due to the luciferase reaction. Assay results are presented as the percent inhibition of light emission compared to control. […]
Assay type: functional
Details: sporozoite; for IC90: read-out: LUCIFERASE INFECTION ASSAY - IC90
[1] = read-out: LUCIFERASE INFECTION ASSAY - IC50

SMILES	IC90 [µM]	IC50 [1] [µM]	further results
NC(=O)c1cc(-c2csc(NC(=O)Cc3ccc(Cl)c(Cl)c3)n2)c[nH]1	> 10	–	IC50 (FFLUC_HILL_SLOPE 1.47, FFLUC_R_SQUARED 0.0625, read-out: LUCIFERASE INFECTION ASSAY - IC50): > 10 µM
COc1ccc(S(=O)(=O)OCCSc2ccc([N+](=O)[O-])c3nonc23)cc1	> 8.02	–	IC50 (FFLUC_HILL_SLOPE 1.23, FFLUC_R_SQUARED 0.562, read-out: LUCIFERASE INFECTION ASSAY - IC50): > 8.02 µM
CC(C)c1ccc(NC(=O)CCCc2ccccc2)cc1	> 11.7	> 11.7	–
Fc1ccc(N2c3cc(F)ccc3N=C(c3ccccc3)C2c2ccccc2)cc1 (stereo not given)	> 8.32	–	IC50 (FFLUC_HILL_SLOPE 13.2, FFLUC_R_SQUARED 0.317, HEPG2TOX_HILL_SLOPE 1.35, HEPG2TOX_R_SQUARED 0.526, PBLUC_HILL_SLOPE 1.66, PBLUC_R_SQUARED 0.328, read-out: LUCIFERASE INFECTION ASSAY - IC50): 5.47 µM
CCOC(=O)c1sc(NC(=O)c2cc(-c3ccc(F)cc3)nc3ccccc23)cc1C	9.91	–	IC50 (HEPG2TOX_HILL_SLOPE 7.73, HEPG2TOX_R_SQUARED 0.935, PBLUC_HILL_SLOPE 14.3, PBLUC_R_SQUARED 0.729, read-out: LUCIFERASE INFECTION ASSAY - IC50): 8.51 µM
Nc1cc(Cl)ccc1Oc1ccc2ccccc2c1	> 10	> 10	–
COc1ccccc1-c1nnc(SCc2cc(=O)c(O)co2)n1C	> 10	> 10	–
Fc1ccc(/C=N/n2c(-c3ccc(Cl)cc3)cs/c2=N\CC2CCCO2)cc1 (stereo not given)	> 10	–	IC50 (PBLUC_HILL_SLOPE 2, PBLUC_R_SQUARED 0.363, read-out: LUCIFERASE INFECTION ASSAY - IC50): 5.58 µM
CN(C)CCNC(=O)c1ccc(-c2cn3c(-c4ccc(Oc5ccccc5)cc4)cnc3cn2)cc1	> 6.91	5.8	–
O=C(Nc1ccccc1Cc1ccccc1)c1cc2c(nc3sccn32)s1	4.88	–	IC50 (PBLUC_HILL_SLOPE 1.68, PBLUC_R_SQUARED 0.818, read-out: LUCIFERASE INFECTION ASSAY - IC50): 1.32 µM
NC(Cc1ccc(F)cc1)c1csc(Nc2cc(NCc3ccco3)ncn2)n1 (stereo not given)	> 8.04	> 8.04	–
Cc1cc(C)c(S(=O)(=O)N2CCN(C(=O)/C(=C/c3cccc(F)c3)n3nnnc3C)CC2)c(C)c1	3.73	1.61	–
c1ccc(C(Nc2ncnc3sccc23)c2cccs2)cc1 (stereo not given)	> 10	–	IC50 (HEPG2TOX_HILL_SLOPE 2.82, HEPG2TOX_R_SQUARED 0.952, PBLUC_HILL_SLOPE 3.44, PBLUC_R_SQUARED 0.151, read-out: LUCIFERASE INFECTION ASSAY - IC50): 7.24 µM
COc1ccc(C(CNC(=O)Cc2coc3c(C)c(C)ccc23)N(C)C)cc1 (stereo not given)	3.36	–	IC50 (PBLUC_HILL_SLOPE 2.38, PBLUC_R_SQUARED 0.44, read-out: LUCIFERASE INFECTION ASSAY - IC50): 1.33 µM
CSc1nccc(-c2sc3scc(C)c3c2C)n1	> 11.3	> 11.3	–
COc1ccc(-c2cnc3c(NC(C)=O)cc(-c4ccc5[nH]ccc5c4)cn23)cc1OC	> 7.74	> 7.74	–
C/C(=N\n1c(-c2ccc(OC(F)F)cc2)cs/c1=N\CCc1ccccc1)c1ccc2c(c1)OCO2	> 10	–	IC50 (PBLUC_HILL_SLOPE 2.39, PBLUC_R_SQUARED 0.524, read-out: LUCIFERASE INFECTION ASSAY - IC50): 9.18 µM
CC(=O)OCc1ccccc1Sc1ccccc1C(=O)Nc1ccccc1	> 8.74	–	IC50 (FFLUC_HILL_SLOPE 9.22, FFLUC_R_SQUARED 0.715, read-out: LUCIFERASE INFECTION ASSAY - IC50): > 8.74 µM
Cc1cc(NC(=O)CSc2ncc(-c3ccc(Cl)cc3)n2-c2ccccc2C)no1	> 10	9.42	–
CNc1ccc2ncc(-c3ccc(OC)nc3)n2n1	12.8	–	IC50 (HEPG2TOX_HILL_SLOPE 1.61, HEPG2TOX_R_SQUARED 0.963, PBLUC_HILL_SLOPE 2.26, PBLUC_R_SQUARED 0.378, read-out: LUCIFERASE INFECTION ASSAY - IC50): 4.85 µM
O=C(Nc1cc(S(=O)(=O)N2CCCC2)ccc1O)c1sccc1-n1cccc1	3.25	–	IC50 (FFLUC_HILL_SLOPE 4.58, FFLUC_R_SQUARED 0.706, PBLUC_HILL_SLOPE 1.57, PBLUC_R_SQUARED 0.879, read-out: LUCIFERASE INFECTION ASSAY - IC50): 0.802 µM
FC(F)(F)c1csc(Nc2ccc(Cl)c(Cl)c2)n1	> 10.5	10.4	–
Cc1c(-c2ccccc2)nc2ccccc2c1C(=O)Nc1ccc2c(c1)OCCO2	6.7	–	IC50 (FFLUC_HILL_SLOPE 1.33, FFLUC_R_SQUARED 0.515, PBLUC_HILL_SLOPE 1.27, PBLUC_R_SQUARED 0.667, read-out: LUCIFERASE INFECTION ASSAY - IC50): 1.19 µM

SMILES	IC90 [µM]	IC50 [1] [µM]	further results
O=C(NC1CC1)c1ccc(-c2cnc3cnc(-c4ccsc4)cn23)cc1	> 9.16	–	IC50 (HEPG2TOX_HILL_SLOPE 0.0389, HEPG2TOX_R_SQUARED 0.0745, PBLUC_HILL_SLOPE 3.06, PBLUC_R_SQUARED 0.597, read-out: LUCIFERASE INFECTION ASSAY - IC50): 7.19 µM
Cc1ccc(-c2csc(Nc3ccccn3)n2)c(C)c1	> 10	–	IC50 (HEPG2TOX_HILL_SLOPE 8.07, HEPG2TOX_R_SQUARED 0.196, PBLUC_HILL_SLOPE 0.693, PBLUC_R_SQUARED 0.516, read-out: LUCIFERASE INFECTION ASSAY - IC50): 0.441 µM
CCOC(=O)C1(C)CCN1C(=O)c1cc(OC)c(OC)c(OC)c1 (stereo not given)	> 9.78	> 9.78	–
CCCc1c(Cc2c(F)cccc2Cl)c(=O)oc2cc(OC(=O)c3ccccc3Cl)ccc12	> 6.8	> 6.8	–
CCOC(=O)c1ccc2c(c1)C1C=CCC1C(c1cccnc1)N2 (stereo not given)	> 10.3	> 10.3	–
Cc1ccc(C2(c3ccccc3)NC(=O)N(CC(=O)c3ccc(Br)s3)C2=O)cc1C (stereo not given)	3.91	–	IC50 (FFLUC_HILL_SLOPE 2.42, FFLUC_R_SQUARED 0.19, PBLUC_HILL_SLOPE 12.8, PBLUC_R_SQUARED 0.482, read-out: LUCIFERASE INFECTION ASSAY - IC50): 3.29 µM
COc1cccc(Nc2nnc(SCC(=O)N(c3ccccc3)C(C)C)s2)c1	> 10	> 10	–
OCc1ccc(-c2cnc3cnc(-c4cccc(Cl)c4)cn23)cc1	> 9.83	–	IC50 (PBLUC_HILL_SLOPE 16, PBLUC_R_SQUARED 0.272, read-out: LUCIFERASE INFECTION ASSAY - IC50): 9.56 µM
Clc1ccc(N/N=C/c2sccc2Oc2ccccc2)cc1	> 10	> 10	–
Cc1ccc(NC(=O)COc2ccc3c(c2C)OC(C)(C)CC3)cc1	> 9.72	–	IC50 (PBLUC_HILL_SLOPE 1.51, PBLUC_R_SQUARED 0.601, read-out: LUCIFERASE INFECTION ASSAY - IC50): 3.8 µM
COc1cccc(C(=O)Nc2nc3ccc(C)cn3c2C(=O)NC2CCCC2)c1	3.16	–	IC50 (HEPG2TOX_HILL_SLOPE 1.86, HEPG2TOX_R_SQUARED 0.913, PBLUC_HILL_SLOPE 11.1, PBLUC_R_SQUARED 0.319, read-out: LUCIFERASE INFECTION ASSAY - IC50): 2.59 µM
O=C(NC1CC1)c1ccc(-c2cn3c(-c4ccc(CO)cc4)cnc3cn2)cc1	> 8.58	–	IC50 (FFLUC_HILL_SLOPE 0.381, FFLUC_R_SQUARED 0.0382, PBLUC_HILL_SLOPE 16.7, PBLUC_R_SQUARED 0.0287, read-out: LUCIFERASE INFECTION ASSAY - IC50): 8.32 µM
O=C(CN1CCC(NC(=O)c2cn(-c3ccccc3)nc2-c2cccs2)CC1)Nc1ccccc1	> 10	> 10	–
C[C@H](NC(=O)c1sc2ccccc2c1Cl)c1nnc2ccccn12	> 9.25	> 9.25	–
CCOC(/C=C1\Sc2c(ccc3c2CCCC3)N1CC)=C1/SC(=S)N(CC)C1=O	> 10	> 10	–
CCCNC(=O)c1csc(C(O)c2ccc(C(C)(C)C)cc2)n1 (stereo not given)	> 10	–	IC50 (HEPG2TOX_HILL_SLOPE 2.18, HEPG2TOX_R_SQUARED 0.794, read-out: LUCIFERASE INFECTION ASSAY - IC50): > 10 µM
Cc1[nH]nc2ccnc(-c3cccc(OC(F)(F)F)c3)c12	> 10	> 10	–
Cc1nnc(N(C)CCCc2n[nH]c(N)c2C#N)c2ccccc12	> 10	> 10	–
O=C(/C=C/c1ccc(Cl)c([N+](=O)[O-])c1)c1ccc(NC2=NCCCS2)cc1	9.95	–	IC50 (HEPG2TOX_HILL_SLOPE 9.82, HEPG2TOX_R_SQUARED 0.995, PBLUC_HILL_SLOPE 5.88, PBLUC_R_SQUARED 0.401, read-out: LUCIFERASE INFECTION ASSAY - IC50): 6.85 µM
COc1ccc(-c2cn3c(-c4ccc5ncccc5c4)cnc3cn2)cn1	4.4	–	IC50 (HEPG2TOX_HILL_SLOPE 1.73, HEPG2TOX_R_SQUARED 0.987, PBLUC_HILL_SLOPE 1.52, PBLUC_R_SQUARED 0.763, read-out: LUCIFERASE INFECTION ASSAY - IC50): 1.04 µM
Cc1ccc(S(=O)(=O)/N=C2\C=C3N(CCO)CCOC3(O)c3ccccc32)c(C)c1 (stereo not given)	6.56	–	IC50 (FFLUC_HILL_SLOPE 0.405, FFLUC_R_SQUARED 0.0273, HEPG2TOX_HILL_SLOPE 10.4, HEPG2TOX_R_SQUARED 0.538, PBLUC_HILL_SLOPE 3.34, PBLUC_R_SQUARED 0.51, read-out: LUCIFERASE INFECTION ASSAY - IC50): 3.4 µM
CN(Cc1ccc(C(N)=O)cc1)c1ncnc2ccccc12	1.53	–	IC50 (HEPG2TOX_HILL_SLOPE 2.36, HEPG2TOX_R_SQUARED 0.863, PBLUC_HILL_SLOPE 14.7, PBLUC_R_SQUARED 0.585, read-out: LUCIFERASE INFECTION ASSAY - IC50): 1.32 µM

— ChEMBL document CHEMBL4483862, “Open-source discovery of chemical leads for next-generation chemoprotective antimalarials” (2018)
